Laboratory results as given in patent publication US11141374B2, “Natural skin care compositions and methods for treating oxidative stress and restoring skin health” (CODEX BEAUTY CORPORATION, priority 2019, dated 2021).

System: normal human-derived epidermal keratinocytes
Assay: in-vitro thymidine dimer assay after UVB, epidermis skin model
Type: cell-based
Conditions: 7 days treatment, UVB 300 mJ/cm^2; Trolox 50 ug/ml, Aristotelia chilensis 5%, Ugni molinae 4%
Experimental: Leaf extracts Aristotelia chilensis and Ugni molinae were evaluated to determine their ability to prevent undesirable thymidine dimer formation upon exposure to UVB radiation. When skin is exposed to UVB radiation, thymidine bases in the DNA can absorb the UVB radiation to form thymidine dimers (also known as thymine dimers) in DNA, complicating the cell's efforts to replicate DNA and to properly function. In this experiment, an in-vitro thymidine dimer assay was performed using a skin model consisting of normal human-derived epidermal keratinocytes cultured to form a multilayered model of the human epidermis. […] The primary antibody was then detected with a secondary antibody conjugated to a fluorescent dye. The membrane was then scanned with an excitation laser and emission filter combo specific to the fluorescent dye, so that the fluorescence intensity of each sample was proportional to the amount of thymidine dimers present in the sample and a lower fluorescence intensity advantageously indicates lower levels of cellular damage from UVB radiation. The results of the thymidine dimer assay are found in Table 1, below, expressed as mean Relative Fluorescence Units (RFU)±standard deviation.

Question: `Cc1c(C)c2c(c(C)c1O)CCC(C)(C(=O)O)O2` (stereo not shown) [Trolox] was tested. Which “Corrected RFU (thymidine dimers), mean ± standard deviation” value did it give?
Answer: The value was 4.380 ± 393.00 RFU.
